This note sets out measurements from PubChem BioAssay (NCI).

Among the test systems are DU-145 prostate; SF-268 CNS; MOLT-4 leukemia; SNB-75 CNS; SF-295 CNS; UO-31 renal; PC-3 prostate; MALME-3M melanoma; MCF7 breast; M14 melanoma; OVCAR-4 ovarian; SK-OV-3 ovarian; HCC-2998 colon; SK-MEL-5 melanoma; RXF 393 renal; OVCAR-8 ovarian; K-562 leukemia; NCI-H226 lung; CCRF-CEM leukemia; OVCAR-5 ovarian.
Common to all, as to experiment: inhibition of tumour cell growth, NCI panel, 48 h

Molecules are shown by their SMILES.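 Results reflect a 48-hour exposure of cells in 96-well plates to compound at five concentrations. Definition used: TGI = concentration required for complete inhibition of growth.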

With `O=C1C=C(C2=C(C3=CC(=O)c4ccccc4C3=O)C(=O)c3ccccc3C2=O)C(=O)c2ccccc21`, the TGI was found to be 16.5 µM in the test on DU-145 prostate; 33.8 µM in the test with SF-268 CNS; 2.27 µM with MOLT-4 leukemia; 35.3 µM in the test with SNB-75 CNS; 34 µM in the test on SF-295 CNS; 11.1 µM in the test with UO-31 renal. Besides, the TGI was determined as 47.6 µM in the test with PC-3 prostate; 4.82 µM in the test on MALME-3M melanoma; 29.6 µM in the test on MCF7 breast; 22.5 µM with M14 melanoma; 17 µM in the test with OVCAR-4 ovarian; 66.5 µM with SK-OV-3 ovarian. In addition, the TGI in the test on HCC-2998 colon is 43.1 µM; in the test with SK-MEL-5 melanoma, 23.9 µM; in the test with RXF 393 renal, 14.5 µM; with OVCAR-8 ovarian, 19.1 µM; with K-562 leukemia it was over 39.5 µM; with NCI-H226 lung it was 29.9 µM. In addition, the TGI amounted to 1.43 µM in the test with CCRF-CEM leukemia and 25.6 µM with OVCAR-5 ovarian.
For the compound `O=[N+]([O-])C(=C/c1cccc2ccccc12)/C(=C\c1cccc2ccccc12)[N+](=O)[O-]`, the TGI in the test on DU-145 prostate turned out to be 8.77 µM; in the test with SF-268 CNS, 7.67 µM; with MOLT-4 leukemia, 8.59 µM; in the test with SNB-75 CNS, 21.8 µM; in the test with SF-295 CNS it was 8.19 µM; in the test with UO-31 renal it was 3.66 µM. Besides, the TGI with PC-3 prostate is over 24.3 µM; with MALME-3M melanoma, 5.49 µM; with MCF7 breast it was 16.8 µM; in the test with M14 melanoma it was 11.3 µM; in the test on OVCAR-4 ovarian it was 7.06 µM; in the test with SK-OV-3 ovarian, 19.1 µM. Moreover, the TGI in the test with HCC-2998 colon was 5.41 µM; with SK-MEL-5 melanoma it was 6.45 µM; in the test on RXF 393 renal, 3.67 µM; in the test with OVCAR-8 ovarian, 7.29 µM; in the test with K-562 leukemia, over 25.9 µM; with NCI-H226 lung, 13.7 µM. Further, the TGI in the test with CCRF-CEM leukemia is 4.77 µM; in the test with OVCAR-5 ovarian it was 12.3 µM.
Regarding `c1ccc(C2=C(c3ccccc3)Sc3nnc(CCCCCCCCc4nnc5n4NC(c4ccccc4)=C(c4ccccc4)S5)n3N2)cc1`, the TGI with DU-145 prostate was over 100 µM; in the test on SF-268 CNS, over 100 µM; with MOLT-4 leukemia, 49.9 µM; in the test with SNB-75 CNS it was over 100 µM; with SF-295 CNS, over 100 µM; in the test on UO-31 renal, over 100 µM. Also, the TGI with PC-3 prostate, with MALME-3M melanoma, in the test on MCF7 breast, with M14 melanoma, with OVCAR-4 ovarian and with SK-OV-3 ovarian was over 100 µM in each case. The TGI in the test with HCC-2998 colon, with SK-MEL-5 melanoma, in the test with RXF 393 renal, in the test with OVCAR-8 ovarian, with K-562 leukemia and in the test on NCI-H226 lung was over 100 µM throughout. The figures for the TGI in the test on CCRF-CEM leukemia and in the test on OVCAR-5 ovarian were 72.4 µM and over 100 µM, respectively.
On to `O=c1[nH]c2nc[nH]c2c(=O)n1C1CCCCC1`, for which the TGI in the test on DU-145 prostate, in the test on SF-268 CNS, with MOLT-4 leukemia, in the test on SNB-75 CNS, with SF-295 CNS and in the test with UO-31 renal was over 100 µM each time. Also, the TGI with PC-3 prostate, in the test on MALME-3M melanoma, in the test on MCF7 breast, with M14 melanoma, in the test with OVCAR-4 ovarian and in the test on SK-OV-3 ovarian was over 100 µM in each case. Besides, the TGI with HCC-2998 colon, in the test on SK-MEL-5 melanoma, with RXF 393 renal, in the test with OVCAR-8 ovarian, with K-562 leukemia and in the test with NCI-H226 lung was over 100 µM each time. The TGI with CCRF-CEM leukemia and with OVCAR-5 ovarian was over 100 µM throughout.
With `C[C@H]1C[C@H]2[C@@H]3CCC4=CC(=O)C=C[C@]4(C)C3=CC[C@]2(C)[C@@]1(O)C(=O)CO`, the TGI in the test on DU-145 prostate, in the test with SF-268 CNS, with MOLT-4 leukemia, in the test with SNB-75 CNS, with SF-295 CNS and in the test on UO-31 renal was over 100 µM throughout. The TGI with PC-3 prostate, with MALME-3M melanoma, in the test on MCF7 breast, in the test with M14 melanoma, with OVCAR-4 ovarian and in the test with SK-OV-3 ovarian was over 100 µM each time. Also, the TGI in the test with HCC-2998 colon, in the test on SK-MEL-5 melanoma, in the test on RXF 393 renal, with OVCAR-8 ovarian, in the test on K-562 leukemia and with NCI-H226 lung was over 100 µM in each case. The TGI with CCRF-CEM leukemia and in the test with OVCAR-5 ovarian was over 100 µM throughout.
Take `CCOC(=O)/C=C\C(C#N)(C#N)N=Cc1ccsc1`: the TGI came out at 30.7 µM in the test with DU-145 prostate; 22 µM in the test on SF-268 CNS; 5.61 µM in the test with MOLT-4 leukemia; 27.8 µM in the test on SNB-75 CNS; 46.6 µM in the test with SF-295 CNS; 5.71 µM with UO-31 renal. The TGI in the test on PC-3 prostate worked out at 22.7 µM; in the test with MALME-3M melanoma, 5.35 µM; in the test with MCF7 breast, 8 µM; in the test with M14 melanoma, 9.5 µM; with OVCAR-4 ovarian it was 19.2 µM; with SK-OV-3 ovarian, 35.6 µM. For the same compound, the TGI in the test on HCC-2998 colon was 32.3 µM; in the test on SK-MEL-5 melanoma, 35.4 µM; with RXF 393 renal, 5.46 µM; in the test with OVCAR-8 ovarian it was 14.6 µM; with K-562 leukemia, 14.3 µM; in the test on NCI-H226 lung, 34.2 µM. The TGI with CCRF-CEM leukemia was determined as 1.02 µM; in the test with OVCAR-5 ovarian, 33.1 µM.
For `O=C(NCCCCCCCN1CCCCCCC1)C(C1CCCCC1)C1CCCCC1`, the TGI came out at 27.4 µM in the test with DU-145 prostate; 32.5 µM in the test on SF-268 CNS; 20.4 µM in the test with MOLT-4 leukemia; 23.1 µM with SNB-75 CNS; 24.6 µM in the test on SF-295 CNS; 21.3 µM in the test on UO-31 renal. The TGI in the test with PC-3 prostate turned out to be 21.1 µM; with MALME-3M melanoma, 8.53 µM; in the test with MCF7 breast, 19.8 µM; in the test on M14 melanoma it was 3.97 µM; in the test on OVCAR-4 ovarian, 25.4 µM; with SK-OV-3 ovarian it was 23.6 µM. The TGI was found to be 7.59 µM in the test with HCC-2998 colon; 5.51 µM in the test on SK-MEL-5 melanoma; 17 µM in the test on RXF 393 renal; 26 µM in the test with OVCAR-8 ovarian; 11.4 µM in the test on K-562 leukemia; 23.5 µM with NCI-H226 lung. For the same compound, the results for the TGI with CCRF-CEM leukemia and with OVCAR-5 ovarian were 46.9 µM and 23.2 µM, respectively.
